Assay results from the NIST ThermoML archive (doi:10.1016/j.tca.2013.05.030).
Numbers after ± are expanded uncertainties.

Assay: mn = molality of the nth substance listed, in mol/kg
Conditions: 101 kPa, Liquid; for viscosity: Capillary tube (Ostwald / Ubbelohde) method; for mass density: Pycnometric method; for speed of sound: Sing-around technique in a fixed-path interferometer

CC(C)Cc1ccc(C(C)C(=O)[O-])cc1.[Na+] (stereo not given) [sodium ibuprofen] + O
Conditions	mass density [kg/m3]	speed of sound [m/s]	viscosity [mPa·s]
298.15 K, m1 = 0.1048	1001.4 ± 0.3	1512.8 ± 1	0.973 ± 0.009
298.15 K, m1 = 0.1525	1003.2 ± 0.3	1518.4 ± 1	1.007 ± 0.009
298.15 K, m1 = 0.2231	1005.8 ± 0.3	1525.6 ± 1	1.07 ± 0.01
298.15 K, m1 = 0.3179	1009.1 ± 0.4	1533.2 ± 1	1.173 ± 0.011
298.15 K, m1 = 0.3721	1010.9 ± 0.4	1536.4 ± 1	1.242 ± 0.011
298.15 K, m1 = 0.4422	1013.1 ± 0.4	1540 ± 1	1.342 ± 0.012
298.15 K, m1 = 0.4678	1013.9 ± 0.4	1540.8 ± 1	1.381 ± 0.012
303.15 K, m1 = 0.1048	999.9 ± 0.4	1523.6 ± 1	0.867 ± 0.008
303.15 K, m1 = 0.1525	1001.7 ± 0.4	1528.4 ± 1	0.897 ± 0.008
303.15 K, m1 = 0.2231	1004.3 ± 0.4	1534.4 ± 1	0.953 ± 0.009
303.15 K, m1 = 0.3179	1007.5 ± 0.4	1540.8 ± 1	1.043 ± 0.01
303.15 K, m1 = 0.3721	1009.3 ± 0.4	1543.2 ± 1	1.104 ± 0.01
303.15 K, m1 = 0.4422	1011.5 ± 0.4	1546.4 ± 1	1.194 ± 0.011
303.15 K, m1 = 0.4678	1012.3 ± 0.4	1547.2 ± 1	1.228 ± 0.011
308.15 K, m1 = 0.1048	998.2 ± 0.4	1532 ± 1	0.78 ± 0.007
308.15 K, m1 = 0.1525	1000 ± 0.4	1536.4 ± 1	0.808 ± 0.007
308.15 K, m1 = 0.2231	1002.5 ± 0.4	1542 ± 1	0.857 ± 0.008
308.15 K, m1 = 0.3179	1005.7 ± 0.4	1548 ± 1	0.937 ± 0.009
308.15 K, m1 = 0.3721	1007.4 ± 0.4	1550.8 ± 1	0.992 ± 0.009
308.15 K, m1 = 0.4422	1009.6 ± 0.4	1553.6 ± 1	1.072 ± 0.01
308.15 K, m1 = 0.4678	1010.4 ± 0.4	1554.4 ± 1	1.104 ± 0.01
313.15 K, m1 = 0.1048	996.3 ± 0.4	1539.2 ± 1	0.707 ± 0.007
313.15 K, m1 = 0.1525	998 ± 0.4	1542.8 ± 1	0.732 ± 0.007
313.15 K, m1 = 0.2231	1000.5 ± 0.4	1547.6 ± 1	0.777 ± 0.007
313.15 K, m1 = 0.3179	1003.6 ± 0.4	1552.8 ± 1	0.848 ± 0.008
313.15 K, m1 = 0.3721	1005.3 ± 0.4	1555.2 ± 1	0.898 ± 0.008
313.15 K, m1 = 0.4422	1007.4 ± 0.4	1557.2 ± 1	0.969 ± 0.009
313.15 K, m1 = 0.4678	1008.1 ± 0.4	1558 ± 1	0.997 ± 0.009

O [water] + CC(C)Cc1ccc(C(C)C(=O)[O-])cc1.[Na+]
Conditions	speed of sound [m/s]
313.15 K, m2 = 0	1528.8 ± 1
